Results on six substances are retold here after patent publication US8912136B2, “Methods and compositions related to clot-binding compounds” (Sanford-Burnham Medical Research Institute, priority 2009, dated 2014).

Where no end group is shown, it is not given here. [ ]: non-standard residue; d: D form. NMeR = CN[C@@H](CCCNC(=N)N)C(=O)O; αMeR = C[C@](N)(CCCNC(=N)N)C(=O)O; NMeE = CN[C@@H](CCC(=O)O)C(=O)O; αMeE = C[C@](N)(CCC(=O)O)C(=O)O

Series [1] has as its system orthotopic 22Rv1 xenograft tumors. The series is described as follows: In vivo homing of FAM-labeled CREKA and methylated CREKA peptides. The following applies: for tumor fluorescence compared to unmodified CREKA: 200 μg FAM-conjugated peptide, 3 hrs, Image J. Details: species or system mouse. As to the method: Tumor accumulation of CREKA peptide and its N-methylated and C-methylated variants. The accumulation of N-methylated and C-methylated derivatives of CREKA was measured in mice bearing orthotropic 22Rv-1 xenograft tumors. The mice were intravenously injected with 200 μg of FAM-conjugated CREKA or methylated CREKA peptides derivatives. The peptides were allowed to circulate for 3 hrs. The mice were then perfused through the heart with PBS, and organs were collected and the fluorescence was measured under UV light. The fluorescence was analyzed with Image J software. Most N/C-methylated CREKA analogs produced stronger fluorescence compared to the unmodified CREKA. […] In FIG. 10B the enhanced fluorescence of CR(NMe)EKA is shown in the tumor compared to both CREKA and C(NMe)REKA peptide. It is shown that FAM-labeled CREKA peptide in which the glutamic acid is N-methylated accumulates in tumor tissue more strongly than unmodified CREKA.
Orthotopic prostate cancers were used when they reached 0.5-1 cm in size. Synthetic peptides labeled with fluorescein (approximately 200 μg) were intravenously injected into tumor-bearing mice and allowed to circulate for 15 minutes to 3 hours. The mice were perfused with PBS through the heart under anesthesia, and tissues were collected and observed under UV light (Illumatool Bright Light System LT-9900, Lightools Research, Encinitas, Calif.), and then processed for immunofluorescence or immunohistochemistry.

Series [2] concerns MDA-MB-435 human breast cancer xenograft tumors. The series is described as follows: Nanoparticle/liposome tumor homing and clotting in tumor vessels. In kind it is in vivo, mouse. As to the method: Nanoparticle injections. For intravenous injections, the animals were anesthetized with intraperitoneal Avertin, and liposomes (2 μmol DSPC) and/or nanoparticles (1-4 mg Fe/kg body weight) were injected into the tail vein. The animals were sacrificed 5-24 h post-injection by cardiac perfusion with PBS under anesthesia, and organs were dissected and analyzed for particle homing. To suppress liver macrophages, mice were intravenously injected with liposomal clodronate suspension (100 μl per mouse), and the mice were used for experiments 24 hours later.
Intravital microscopy. Tumor blood flow in MDA-MB 435 xenograft-bearing mice was observed by intravital microscopy. Mice were pre-injected with Ni-liposomes and 5×10^8 of DiI-labeled erythrocytes. A skin flap was moved aside to expose the tumors, and the mice were intravenously injected with 4 mg/kg of fluorescein-CREKA-SPIO (time “0”). The tumors were scanned with IV-100 intravital laser scanning microscope (Olympus Corp., Tokyo, Japan) using an IV-OB35F22W29 MicroProbe objective (Olympus Corp., Tokyo, Japan). Movies were recorded at 10 min intervals up to 120 min post-injection.
Magnetic measurements of the tissue samples using Superconducting Quantum Interference Device (SQUID) magnetometer. Tissue samples were frozen immediately upon collection, lyophilized, weighed, and placed in gelatin capsules. The capsules were inserted into the middle of transparent plastic straws for magnetic measurements made using a Quantum Design MPMS2 SQUID magnetometer (San Diego, Calif.) operated at 150 K. The samples were exposed to direct current magnetic fields in stepwise increments up to one Tesla. Corrections were made for the diamagnetic contribution of tissue, capsule and straw.

Series [3] can be described thus: Nanoparticle clearance (blood half-life). The class given is in vivo, mouse. As to the method: Nanoparticle injections. For intravenous injections, the animals were anesthetized with intraperitoneal Avertin, and liposomes (2 μmol DSPC) and/or nanoparticles (1-4 mg Fe/kg body weight) were injected into the tail vein. The animals were sacrificed 5-24 h post-injection by cardiac perfusion with PBS under anesthesia, and organs were dissected and analyzed for particle homing. To suppress liver macrophages, mice were intravenously injected with liposomal clodronate suspension (100 μl per mouse), and the mice were used for experiments 24 hours later. Nanoparticle clearance. Heparinized capillaries were used to draw 50 μA of blood from the periorbital plexus at different times after nanoparticle injection, the blood was centrifuged at 300 g for 2 min, and a 10 μA aliquot of platelet-rich plasma was diluted into 600 μl 1M Tris solution, pH 8.4. Fluorescence was determined on a PerkinElmer (Norwalk, Conn.) LS50B spectrofluorometer, and plotted as a function of the time the particles had circulated.

The next series has as its system human plasma clots. The series is described as follows: Nanoparticle binding to plasma clots in vitro. How it is done: (§1) Phage and nanoparticle binding to clots. Phage binding to clotted plasma proteins was determined as described (Pilch 2006). CREKA-SPIO and control SPIO were added to freshly formed plasma clots in the presence or absence of free CREKA peptide. After 10 min incubation, the clots were washed 4 times in PBS, transferred to a new tube and digested in 100 μl concentrated nitric acid. The digested material was diluted in 2 ml distilled water and the iron concentration was determined using inductively coupled plasma-optical emission spectroscopy (ICP-OES, PerkinElmer, Norwalk, Conn.).

A further series relates to mouse plasma clots. The series is described as follows: Nanoparticle binding to plasma clots in vitro. How it is done: as §1
For series [4], the system named is 22Rv1 orthotopic human prostate cancer tumors. The series is described as follows: Homing and clotting of peptide-coated iron oxide nanoworms/SPIO. The class given is in vivo, mouse. The conditions noted are these: intravenous, Example 2. As to the method: To analyze NW biodistribution, mice bearing orthotopic 22Rv1 tumors were injected into the tail vein (5 mg of iron per kg body weight). In homing experiments, the mice were euthanized 5-6 hours after the injection by cardiac perfusion with PBS under anesthesia, and organs were dissected and analyzed for particle homing. In tumor treatment experiments, nude mice bearing 2 week-old 22Rv-1 or LAPC9 orthotopic xenografts (typically about 200-250 mm^3 in tumor volume) were intravenously injected with NW in 150 μl PBS or PBS as a control. The NW were injected every other day for 14 days. The total cumulative dose was 35 mg iron/kg. At the end of the treatment, the mice were perfused with PBS under anesthesia, and the tumors were harvested. Tumor volume was calculated using the following formula: volume (mm3)=(d2×D)/2, where d and D are the smallest and largest tumor diameters, respectively. […] The primary antibodies were detected with Alexa 647 goat anti-rat, and 647 donkey anti-goat secondary antibodies (1:1000; Molecular Probes, Eugene, Oreg.). […] The primary antibody was detected with biotinylated anti-mouse IgG and Vectastain ABC kit (Vector Laboratories, Burlingame, Calif.). […] To quantify the homing area of fibrin(ogen) within tumors the stained section were scanned with the Scanscope CM-1 scanner and analyzed with the ImageScope software41 (Aperio Technologies, Vista, Calif.).

The mark [5] stands for this setting: intravenous, no decoy pretreatment.

On to “C(NMe)REKA: CREKA analog in which the arginine residue is N-methylated (C[NMeR]EKA)”, for which the “tumor fluorescence compared to unmodified CREKA” value in series [1] is “did not show an enhanced fluorescence”. Besides, in series [1] (FAM-labeled peptides, Example 3), the “tumor accumulation / fluorescence of CREKA analogs” value is recorded as “only weak tumor fluorescence”.

“CR(CMe)EKA: Cα-methylated CREKA analog (C[αMeR]EKA)”: the “tumor fluorescence compared to unmodified CREKA” value in series [1] is “significantly more fluorescence”.

In the case of “CR(NMe)E(NMe)KA: doubly N-methylated CREKA analog (C[NMeR][NMeE]KA)”, the “tumor fluorescence compared to unmodified CREKA” value in series [1] is given as “significantly more fluorescence”.

As for “CRE(CMe)KA: Cα-methylated CREKA analog (CR[αMeE]KA)”, the “tumor fluorescence compared to unmodified CREKA” value in series [1] is “significantly more fluorescence”. Besides, the “accumulation in areas rich in fibrin(ogen) and fibronectin” value in series [1] (confocal microscopy of tumor sections) is “equally active”.

Consider “CRE(NMe)KA: N-methylated CREKA analog (CR[NMeE]KA)”, for which the “tumor fluorescence compared to unmodified CREKA” value in series [1] is reported as “significantly more fluorescence”.

As to “CREKA-SPIO: fluorescein-labeled CREKA coupled onto 50 nm superparamagnetic amino dextran-coated iron oxide nanoparticles (not fully specified (N-terminus); also: conjugated to dextran-coated superparamagnetic iron oxide nanoparticles (SPIO))”, the “whole-body scan tumor signal” value in series [2] (Cy7-labeled, near infrared) is listed as “effectively accumulated in tumors”. Moreover, in series [2] (DiI-labeled erythrocytes as flow marker, 4 mg/kg), the “intravital confocal microscopy of tumor blood vessels” value is “time-dependent clot formation and obstruction of blood flow”. The “accumulation in Ni-liposome-pretreated compared to PBS-pretreated mice” value in series [2] (SQUID tumor magnetization and fluorescence signal) was “about 6 fold”. For the same substance, the “reduction of tumor accumulation by heparin” value in series [2] (SQUID, heparin prior to injection) is recorded as “more than 50%”. Also, in series [2] (after liposome pretreatment), the “tumor vessel lumens filled with fluorescent masses (occlusion)” value was “up to 20%”. In series [2] (anti-CD41 monoclonal antibody), the “effect of thrombocytopenia on homing” value is reported as “no noticeable effect”. Also, in series [2] (heparin pretreatment), the “heparin effect on intravascular clotting” value is “essentially eliminated” and the “heparin effect on number of vessels with nanoparticles bound to the vessel walls” value is “did not significantly reduce”. Moreover, in series [2] (setting [5]), the accumulation in tumor entry was “did not accumulate effectively” and the “particles in reticuloendothelial system (RES) tissues” value is listed as “high concentration of particles”. Also, the “tumor homing after Ni-liposome pretreatment” value in series [2] (pretreatment 5 min or 48 h prior) was “greatly increased the tumor homing”. Besides, the “localization of nanoparticle-induced clotting” value in series [2] (tumor versus kidneys, lungs, liver) is “essentially confined to tumor vessels”. The “prolongation in particle half-life” value in series [3] (after depleting RES macrophages with liposomal clodronate) is roughly 5 fold. The “blood half-life and tumor homing after decoy particles” value in series [3] (plain liposomes as decoy particles) is recorded as “prolonged the blood half-life”. Further, in the series with human plasma clots, the “binding to plasma clots” value was “bound to mouse and human plasma clots”. Moreover, the “binding to plasma clots” value in the series on mouse plasma clots was “bound to mouse and human plasma clots”. Besides, the tumor homing result in series [4] is “effectively home to 22Rv-1 tumors”.
